Data reported in US20100273769A1, “COMPOSITION AND METHOD FOR THE TREATMENT OF PARKINSON'S DISEASE” (priority 2009, published 2010).
Like-named read-outs stand apart in the source and are kept apart here.

What was measured:
wildtype human LRRK2 = target: T1, wildtype human LRRK2 (Homo sapiens, UniProt Q5S007); assay: Adapta assay, inhibition of wildtype human LRRK2 kinase fragment with LRRKtide; format: biochemical
T1 construct: human LRRK2 protein fragment encompassing amino acids 1326 to 2527; GST; made in house
T1 sequence (Q5S007 1326-2527): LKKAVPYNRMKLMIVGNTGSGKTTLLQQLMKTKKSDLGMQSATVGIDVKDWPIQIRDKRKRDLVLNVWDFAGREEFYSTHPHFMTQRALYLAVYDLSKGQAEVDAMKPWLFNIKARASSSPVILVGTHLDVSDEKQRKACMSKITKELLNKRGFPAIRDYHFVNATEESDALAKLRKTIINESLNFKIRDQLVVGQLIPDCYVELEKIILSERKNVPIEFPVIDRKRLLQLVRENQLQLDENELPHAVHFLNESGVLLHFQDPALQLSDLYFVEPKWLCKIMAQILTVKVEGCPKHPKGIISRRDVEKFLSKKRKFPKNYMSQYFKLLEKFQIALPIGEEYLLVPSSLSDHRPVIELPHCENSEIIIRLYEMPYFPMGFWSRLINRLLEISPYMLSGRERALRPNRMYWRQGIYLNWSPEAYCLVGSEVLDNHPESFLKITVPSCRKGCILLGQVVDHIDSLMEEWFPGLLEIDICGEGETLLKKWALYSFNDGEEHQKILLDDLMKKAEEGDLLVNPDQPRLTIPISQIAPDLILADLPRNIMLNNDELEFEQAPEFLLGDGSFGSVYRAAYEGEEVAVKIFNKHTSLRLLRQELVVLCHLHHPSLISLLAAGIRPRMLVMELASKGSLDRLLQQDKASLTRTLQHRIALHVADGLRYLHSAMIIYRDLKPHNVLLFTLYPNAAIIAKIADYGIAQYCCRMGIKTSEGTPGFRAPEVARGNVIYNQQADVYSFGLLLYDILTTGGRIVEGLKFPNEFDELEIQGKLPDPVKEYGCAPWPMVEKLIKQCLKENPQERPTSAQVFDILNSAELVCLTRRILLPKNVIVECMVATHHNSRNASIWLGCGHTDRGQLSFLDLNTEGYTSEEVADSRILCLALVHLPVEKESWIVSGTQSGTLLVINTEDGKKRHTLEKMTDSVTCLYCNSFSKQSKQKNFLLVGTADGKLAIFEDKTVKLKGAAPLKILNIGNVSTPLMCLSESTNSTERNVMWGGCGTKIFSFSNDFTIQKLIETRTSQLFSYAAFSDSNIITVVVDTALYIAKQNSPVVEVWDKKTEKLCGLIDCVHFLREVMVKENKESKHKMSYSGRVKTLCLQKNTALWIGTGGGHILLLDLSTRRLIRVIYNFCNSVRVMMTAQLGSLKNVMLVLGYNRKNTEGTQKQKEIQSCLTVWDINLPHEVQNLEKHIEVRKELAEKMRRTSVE

[1] = test system: R1441C LRRK2 transgenic C. elegans; assay: Food-sensing (slowing) response in LRRK2 transgenic C. elegans; format: in vivo; conditions: Caenorhabditis elegans, 96 h; exposure through larval stages to adult stage day 4; read-out: Half-maximal restoration of the slowing response after food exposure
Procedure: Dopaminergic neurons in C. elegans are involved in food sensing behavior such that in the absence of food worms move more rapidly, as assessed by determining their bending frequency on an agar plate not supplied with food. In an established assay the animals are then exposed to food, and the difference in motility is recorded in the form of bending frequency [Sawin et al., Neuron 26, 619-631 (2000)]. […] In approximate synchrony with the dopaminergic neurodegeneration this slowing response is essentially eliminated after 4 days. […] The slowing response can be reconstituted to a substantial degree by supplementation with dopamine, confirming that the phenotype is due to loss of dopaminergic input (FIG. 5).
The clear-cut functional phenotype of this model can be used to determine the efficacy of LRRK2 kinase inhibitors and the accurate determination of their potency in a biological context. […] The potency is expressed as the half-maximal restoration of the slowing response. […]
The functional consequence of dopaminergic neurodegeneration was assayed using the food-sensing response resulting in a slowing of motility after food exposure as assessed by the frequency of body bending within 20 second intervals in groups of 10 animals [Sawin et al., Neuron 26, 619-631 (2000)]. […]

CNC(=O)[C@@]1(N)CC2OC1(C)n1c3ccccc3c3c4c(c5c6ccccc6n2c5c31)C(=O)NC4 (stereo partly shown) [Compound 3]
IC50 relative to nominal kinase concentration, wild-type LRRK2 (wildtype human LRRK2; 100 μM ATP, FIG. 3A): substantially below the nominal concentration of the kinase itself | IC50 (wildtype human LRRK2; 100 μM ATP, read-out: LRRK2): 1.1 nM | IC50 (wildtype human LRRK2; 100 microM ATP, read-out: LRRK2 inhibitory potency (essentially receptor-limited)): ≤ 1 nM | EC50 [1]: 30 nM
